# Measurements from patent publication US6770637B2, “Substituted 4-phenyl-pyridine compounds with activity as antagonists of neurokinin 1 receptors” (Hoffmann-La Roche Inc., priority 2000, dated 2004).
# pKi: −log10 of the molar value.
# Target: T1, human NK1 receptor (Homo sapiens, UniProt P25103)
# T1 construct: expressed in transfected cells; host or cells: CHO cells infected with the Semliki virus expression system; membrane suspension
# Assay: NK1 receptor binding assay, displacement of [3H]substance P
# Settings: affinity to the NK-1 receptor; human NK1 receptors in CHO cells (Semliki virus expression system); [3H]substance P 0.6 nM
# Protocol: The affinity of tests compounds for the NK1 receptor was evaluated at human NK 1 receptors in CHO cells infected with the human NK1 receptor (using the Semliki virus expression system) and radiolabelled with [^3H]substance P (final concentration 0.6 nM.) Binding assays were performed in HEPES buffer (50 mM, pH 7.4) containing BSA (0.04%) leupeptin (8 μg/ml), MnCl2 (3 mM) and phosphoramidon (2 μM). Binding assays consisted of 250 μl of membrane suspension (1.25×10^5 cells/assay tube), […] of bugger of displacing agent and 125 μl of [^3H]substance P. Displacement curves were determined with at least seven concentrations of the compound. The assay tubes were incubated for 60 min at room temperature after which time the tube contents were rapidly filtered under vacuum through GF/C filters presoaked for 60 min with PEI (0.3%) with 2×2 ml washes of HEPES buffer (50 mM, pH 7.4). The radioactivity retained on the filters was measured by scintillation counting. All assays were performed in triplicate in at least 2 separate experiments.
# T1 sequence (P25103 whole entry): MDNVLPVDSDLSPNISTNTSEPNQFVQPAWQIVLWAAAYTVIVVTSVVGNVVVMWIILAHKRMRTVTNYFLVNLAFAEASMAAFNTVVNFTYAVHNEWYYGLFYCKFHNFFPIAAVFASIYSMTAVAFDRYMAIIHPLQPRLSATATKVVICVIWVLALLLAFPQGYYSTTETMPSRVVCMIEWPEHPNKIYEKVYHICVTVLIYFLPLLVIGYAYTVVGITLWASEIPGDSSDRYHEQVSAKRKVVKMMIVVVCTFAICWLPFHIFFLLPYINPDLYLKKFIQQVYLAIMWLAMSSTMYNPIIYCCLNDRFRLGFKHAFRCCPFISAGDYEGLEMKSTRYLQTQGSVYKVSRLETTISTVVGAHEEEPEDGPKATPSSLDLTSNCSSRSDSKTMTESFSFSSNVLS
row,Compound,pKi
1,"Cc1ccccc1-c1cc(N(O)CCO)ncc1N(C)C(=O)C(C)(C)c1cc(C(F)(F)F)cc(C(F)(F)F)c1 [Example 8, 2-(3,5-Bis-trifluoromethyl-phenyl)-N-{6-[hydroxy-(2-hydroxy-ethyl)-amino]-4-o-tolyl-pyridin-3-yl}-N-methyl-isobutyramide]",9.29
2,"Cc1ccccc1-c1cc(N(C(=O)C2CC2)C(=O)C2CC2)ncc1N(C)C(=O)C(C)(C)c1cc(C(F)(F)F)cc(C(F)(F)F)c1 [Example 16, Cyclopropanecarboxylic acid (5-{[2-(3,5-bis-trifluoromethyl-phenyl)-2-methyl-propionyl]-methyl-amino}-4-o-tolyl-pyridin-2-yl)-cyclopropanecarbonyl-amide]",8.50
3,"C#Cc1cc(-c2ccccc2C)c(N(C)C(=O)C(C)(C)c2cc(C(F)(F)F)cc(C(F)(F)F)c2)cn1 [Example 66, 2-(3,5-Bis-trifluoromethyl-phenyl)-N-(6-ethynyl-4-o-tolyl-pyridin-3-yl)-N-methyl-isobutyramide]",8.57
4,"Cc1ccccc1-c1cc(Cl)ncc1N(C)C(=O)C(C)(C)c1cc(C(F)(F)F)cc(C(F)(F)F)c1 [Example 26, 2-(3,5-Bis-trifluoromethyl-phenyl)-N-(6-chloro-4-o-tolyl-pyridin-3-yl)-N-methyl-isobutyramide]",8.65

# Second part, the compound after the results:
row,pKi,Compound
1,9.08,"Cc1ccccc1-c1cc(C2=CCNCC2)ncc1C(=O)N(C)Cc1cc(C(F)(F)F)cc(C(F)(F)F)c1 [Example 42, 4-o-Tolyl-1′,2′,3′,6′-tetrahydro-[2,4′]bipyridinyl-5-carboxylic acid (3,5-bis-trifluoromethyl-benzyl)-methyl-amide]"
2,8.78,"Cc1ccccc1-c1cc(OCCCO)ncc1C(=O)N(C)Cc1cc(C(F)(F)F)cc(C(F)(F)F)c1 [Example 113, N-(3,5-Bis-trifluoromethyl-benzyl)-6-(3-hydroxy-propoxy)-N-methyl-4-o-tolyl-nicotinamide]"
3,8.67,"CC(=O)c1ccc(-c2cc(-c3ccccc3C)c(C(=O)N(C)Cc3cc(C(F)(F)F)cc(C(F)(F)F)c3)cn2)s1 [Example 38, 6-(5-Acetyl-thiophen-2-yl)-N-(3,5-bis-trifluoromethyl-benzyl)-N-methyl-4-o-tolyl-nicotinamide]"
4,8.52,"Cc1noc(-c2cc(-c3ccccc3C)c(C(=O)N(C)Cc3cc(C(F)(F)F)cc(C(F)(F)F)c3)cn2)n1 [Example 62, N-(3,5-Bis-trifluoromethyl-benzyl)-N-methyl-6-(3-methyl-[1,2,4]oxadiazol-5-yl)-4-o-tolyl-nicotinamide]"
5,8.58,"Cc1ccccc1-c1cc([S+]([O-])c2ccccn2)ncc1C(=O)N(C)Cc1cc(C(F)(F)F)cc(C(F)(F)F)c1 (racemic) [Example 99, (RS)-N-(3,5-Bis-trifluoromethyl-benzyl)-N-methyl-6-(pyridine-2-sulfinyl)-4-o-tolyl-nicotinamide]"
6,8.79,"Cc1ccccc1-c1cc(NC(=O)CO)ncc1N(C)C(=O)C(C)(C)c1cc(C(F)(F)F)cc(C(F)(F)F)c1 [Example 13, 2-(3,5-Bis-trifluoromethyl-phenyl)-N-[6-(2-hydroxy-acetylamino)-4-o-tolyl-pyridin-3-yl]-N-methyl-isobutyramide]"
